According to patent US20080207521A1, “PEPTIDE LIGAND TO IMPAIR CANCER CELL MIGRATION” (priority 2005, published 2008):

Key:
Format in all cases: cell-based, human
MDA-MB-468 cells = assay: Adhesion of MDA-MB-468 breast cancer cells to collagen I (MTS); conditions: pure peptide 100 μM; 60 min
Description: (§1) The adhesion assay was carried out as previously described (12). Briefly, cells were serum-depleted for 16 h, detached with Versene and allowed to adhere as single cells to collagen I for 60 (MDA-MB-468) or 90 min (HB2) at 37° C. Non-adherent cells were removed by washing with PBS. The adherent cells were incubated with a (3-(4,5-dimethylthiazol-2-yl)-5-(3-carboxymethoxyphenyl)-2-(-4-sulfophenyl)-2H-tetrazolium, inner salt (MTS) dye reduction assay (Promega, Madison, Wis.) and absorbance was measured at 490 nm using a Fluostar microplate reader from BMG LabTechnologies (GmbH, Offenberg, Germany). In each experiment a single value was calculated based on the mean of adhesion from six separate wells after the adhesion to plastic alone had been subtracted. The CM used as a control in the adhesion assays was obtained from confluent Wnt-5a overexpressing HB2 cells (for experiments with Wnt-5a antisense HB2 cells) or Wnt-5a overexpressing MCF-7 cells (for MDA-MB-468 cells) stably transfected with a vector over-expressing Wnt5a. A collected CM was always used within three days.
Peptide-induced effects on adhesion and DDR1 phosphorylation in MDA-MB-468 breast cancer cells. (A) Western blot analysis of Wnt-5a protein expression in Wnt-5a antisense and Wnt-5a over-expressing HB2 cells in comparison to MDA-MB-468 tumour cells. The blot is representative of 9 separate experiments. (B) Peptide-induced effects on MDA-MB-468 tumour cell adhesion. The cells were allowed to adhere to collagen type I-coated wells for 60 min in the absence or presence of 100 μM of the indicated peptides or CM. The amounts of adhesive cells were analyzed as described in the methods and the results are given as means±SEM of 8 separate experiments. (C) MDA-MB-468 cell adhesion to collagen I-coated wells in the absence or presence of peptide 175 or a peptide with same amino acid sequence except for a substitution of cysteine for alanine (175Ala) or CM. The amount of adherent cells was estimated as in panel A and expressed as means±SEM of 6 separate experiments, ns=not significant, ** p<0.01 and *** p<0.001. (D) Single MDA-MB-468 cells were allowed to adhere to collagen I-coated plates for 60 min in the absence or presence of the indicated peptides (100 μM), CM or recombinant Wnt-5a (0.8 µg/ml). DDR1 immunoprecipitates were Western blotted with first an anti-phosphotyrosine Ab and then after stripping with an anti-DDR1 Ab. The blots shown are representative of 6 separate experiments.
Effects of peptide 175 modifications on its ability to induce MDA-MB-468 tumour cell adhesion and migration. (A) The cells were allowed to adhere for 60 min to collagen-I coated wells in the absence or presence of peptide 175, three stepwise N-terminal deletion variants of peptide 175 or a formylated version of the tested hexapeptide derived from peptide 175. The amounts of adhesive cells were analyzed as described in the methods and the results are given as means±SEM of 6 separate experiments. (B and C) The cells were allowed to migrate for 18 h in the absence or presence of 1 or 10 μM of peptide 175 (B) or the formylated hexapeptide (C). The data are given as means±SEM of 6 separate experiments, each performed in triplicate. * p<0.05, p<0.01.

[1] = tested on: Wnt-5a antisense HB2 cells; assay: Adhesion of Wnt-5a antisense HB2 cells to collagen I (MTS); conditions: for adhesion to collagen I, concentration-dependent analysis: 95% pure peptides, different concentrations
Description: as §1
To control the specificity of the CM, it was incubated with either the Wnt-5a or a control Ab for 45 min at 37° C. Subsequently 10 μl Protein A Sepharose was added for 30 min and after the protein A-bound antibodies were collected by centrifugation the remaining supernatants were used for the experiments.
Effects of crude peptides on adhesion of Wnt-5a antisense HB2 cells to collagen. (A) Single cells were allowed to adhere for 90 min in the absence or presence of the indicated crude peptides (100 μM). The amounts of adhesive cells were analyzed as described in the methods and the results are given as means±SEM of 7 separate experiments. (B) Adhesion of Wnt-5a antisense HB2 cells to collagen was analyzed after pre-treating the cells with an anti-[…]1-integrin Ab for 45 min before letting them adhere for 90 min in the absence or presence of peptides 171 or 175 (100 μM) or CM. The amounts of adhesive cells were analyzed as described in the methods and the results are given as means±SEM of 6 separate experiments (C) The diagram outlines a control of the presently used CM. The cells were allowed to adhere to collagen I-coated wells in the absence or presence of normal CM or Wnt-5a depleted CM. The amounts of adhesive cells were analyzed as described in the methods and the results are given as means±SEM of 6 separate experiments. Ns=not significant, * p<0.05, ** p<0.01 and *** p<0.001.
Effects of the selected and pure peptides on the ability of Wnt-5a antisense HB2 cells to adhere and migrate. (A-E) The ability of the cells to adhere to collagen type I-coated wells was analyzed as previously described for FIG. 2 in the absence or presence of different concentrations of the indicated peptide. (F) Effect of the indicated peptides on migration of Wnt-5a antisense HB2 in a transwell migration assay. The cells were allowed to migrate for 18 h in the absence or presence of 100 μM peptide or 0.4 μg/ml of recombinant Wnt5a. The data are given as means±SEM of 6-7 separate experiments, each performed in triplicate. * p<0.05 and ** p<0.01.

[2] = tested on: filamentous actin (F-actin); assay: F-actin content of MDA-MB-468 cells (AlexaFluor 488 phalloidin fluorescent microscopy); conditions: peptide 100 μM; 18 h; compared to untreated cells
Description: MDA-MB-468 cells were detached from the tissue culture dishes by incubation with Versene for 10 min at 37° C., washed, re-suspended as single cells in serum-free DMEM medium supplemented with 0.5% BSA with or without peptide 175 (100 μM), and plated on a cover glass, pre-coated with 10 µg/ml collagen-I, in a cell culture dish. These experiments were terminated after 18 h by fixing the cells with 4% paraformaldehyde for 10 min at 4° C.
The cells were then permeabilized by incubation with 0.5% Trition X-100 for 5 min and blocked by incubation with a 3% BSA solution supplemented with 0.3% Triton X-100 for 45 min. The staining of the cells was performed in the dark by incubation for 40 min with AlexaFluor® 488 phalloidin (Molecular Probes, Eugene, Oreg.) at a dilution of 1:500 and in the presence of 1% BSA. Thereafter the cells were extensively washed and finally mounted with Dako Cytomation fluorescent mounting medium. The samples were examined and photographed in a Nikon Eclipse 800 microscope using a 60× oil immersion objective.
Peptide-induced effects on MDA-MB-468 tumour cell migration and their content of F-actin. (A) The cells were allowed to migrate for 18 h in the absence or presence of the indicated peptides (100 μM) The data in panel A are expressed as means±SEM of 8 separate experiments, each performed in triplicate. * p<0.05. […]

| Sequence | adhesion to collagen I (MDA-MB-468 cells) | adhesion to collagen I, concentration-dependent analysis [1] | cellular content of filamentous actin (F-actin) [2] | adhesion to collagen after pre-treatment with blocking anti-β1-integrin Ab ([1]; anti-β1-integrin Ab 45 min at 37° C., peptide 100 μM, 90 min) | adhesion to collagen I ([1]; crude peptide (65% pure) 100 μM, 90 min) |
| --- | --- | --- | --- | --- | --- |
| ADFRKVGDALKEKYD [peptide 169, Wnt-5a aa 242-256] | significantly increased | increased when tested at higher purity |  |  |  |
| NKTSEGMDGCEL (Human) [peptide 175, Wnt-5a aa 311-322] | significantly increased | most effective | significantly higher cellular content of filamentous actin |  |  |
| SQLAGLSQGQKKL [peptide 171, Wnt-5a aa 55-67; negative control] |  | lost or less consistent |  | most likely β1-integrin-dependent | significant effect on adhesion |
